Measured values: US4693998A, “Novel compounds of the muramyl peptide” (Agence Nationale de Valorisation de la Rechersche, priority 1978, dated 1987)

What was measured:
[1] = tested on: bovine serum albumin (BSA) antibodies; experiment: Adjuvant character in the aqueous phase: anti-albumin antibodies by passive hemagglutination; format: in vivo, Swiss mice; details: for Antibody Titer Secondary Response / Antibody Titer Primary Response: Swiss mice, 100 μg s.c. with 0.5 mg BSA in isotonic saline; for Antibody Titer Secondary Response: after booster 0.1 mg BSA at 30 days; for Antibody Titer Primary Response: maximum serum dilution agglutinating; for level of antibodies formed: administered in isotonic saline solution
Experimental: In this series of trials of which the results are indicated below, the influence of the active principle according to the invention on the level of anti-albumin antibodies under the following conditions, were studied.
Groups of 8 Swiss mice aged two months received, by sub-cutaneous injection, 0.5 mg of antigen constituted by bovine serum albumin (BSA) with or without the tested substance in isotonic saline solution. This high dose of antigen, because it is situated at the limit of the paralysing dose with respect to the immune response, results for this reason, in a weak or nil response to the antigen alone in the controls; it therefore constitutes a severe criterion for establishing the activity of an adjuvant substance. Thirty days later, the mice received, by the same route of administration, a booster containing 0.1 mg of the same antigen.
By way of comparison, the adjuvant effect was studied simultaneously of 2-(2-acetamido-2-deoxy-3-O-D-glucopyranosyl)-D-propionyl-L-alanyl-D-isoglutamine (MDP) known for its adjuvant properties.
The antibody level is determined by passive hemagglutination using sheep's red blood cells treated with formalin and covered with the antigen studied according to the method described by A. A. HIRATA and M. W. BRANDISS (J. Immunol., 100, 641-648, 1968). Samples were taken respectively after the first injection of antigen and after injection of the booster to determine the primary and secondary responses.
The antibody titers express the maximum serum dilution agglutinating a given amount of sheep's red blood cells.

[2] = tested on: ovalbumin specific antibodies / delayed hypersensitivity; experiment: Adjuvant character in the presence of an oily phase (FIA): ovalbumin antibodies and delayed hypersensitivity; format: in vivo, Hartley guinea pigs; details: for Serum Antibodies / Cutaneous test (diameter in mm): guinea pigs; for Serum Antibodies: 0.1 mg in FIA emulsion with 1 mg ovalbumin, intradermal, day 21, nitrogen precipitatable by the antigen; for Cutaneous test (diameter in mm): 0.1 mg in FIA emulsion, 0.01 mg ovalbumin intradermal at day 18, read 48 hours later; for delayed hypersensitivity reaction / level of antibodies formed: administered in an oily emulsion
Experimental: In these tests, the growth of the specific antibody level of a given antigen is followed when the latter is injected, with or without the adjuvant compound according to the invention, in a water in oil emulsion.
The tests were carried out on batches of 6 female Hartley guinea pigs of 350 g. The administration was done by intradermal injection into the plantar pad of each of the rear paws. The ovalbumin (constituting the antigen) at the dose of 1 mg is prepared in 0.1 ml of a saline isotonic solution emulsion, in an oily phase constituted by the Freund incomplete adjuvant (FIA). The compound according to the invention is administered at the dose of 0.1 mg added in the emulsion containing the FIA.
As previously, by way of comparison, a test was carried out with MDP in place of the product according to the invention.
Eighteen days after this immunization, possible reactions are sought of delayed hypersensitivity to the antigen by injecting by the intradermal route 0.01 mg of ovalbumin into the side of the animals, and there was observed, 48 hours later, the reaction at the point of injection. The diameter in millimeters of the reaction thus-caused was measured.
Twenty-one days after the injection, the animals were bled. In the serum collected, the content is measured of specific antibodies of ovalbumin by precipitation of the antibody-antigen complex in the equivalence zone. The amount of protein nitrogen contained in this precipitate was estimated by the method of Folin. These values express the amount, in micrograms, of nitrogen precipitatable by the antigen, per […] of serum.

[3] = Pyrogenicity: maximum temperature variation in rabbits during three hours after administration; format: in vivo, rabbit; details: three hours following administration
Experimental: In the course of tests on rabbits, the maximum temperature variations during the three hours following administration were followed. For doses as high as 5 mg/kg or more of product, no significant variation in temperature is observed. Thus the average rise in temperature for administration to rabbits, for different esters of Mur-NAc-L-Ala-D-Gln is: […]

total blood = experiment: Influence on coagulation mechanisms: recalcification coagulation time after incubation with total blood; format: cell-based, rabbit; details: for coagulation time: 100 μg per 1 ml total blood; for effect on coagulation: contrary to LPS
Description: It is known, from recent studies, that compounds having adjuvant properties like LPS can have side effects. Thus it has been observed in the rabbits that the administration of LPS has a tendency to shorten the coagulation time. The reasons for this phenomena are not fully known; nonetheless, it has seemed useful to determine the effect of the products according to the invention on coagulation under the same conditions.
For these tests, the test described by LERNER et col. in Thrombosis Research, Vol. 11, pp. 253-261, 1977, "Endotoxin induced disseminated intravascular clotting: evidence that it is mediated by neutrophile production of tissue factor", was used.
The total blood was divided into two portions of which one was centrifuged to obtain platelet-free plasma (PFP).
1 ml of total blood was incubated in a plastic tube in the presence of 100 μg of the product to be tested.
Tubes were also prepared containing 0.1 ml of PFP to which every hour, from 0 to 5 hours, were added 0.1 ml of incubation mixture, then these were recalcified by 0.1 ml of 0.025M calcium chloride.
The coagulation time was noted and the pro-coagulating activity was deduced therefrom as a function of the shortening of the coagulation time with respect to the control, physiological water. The result was compared with that of a highly pro-coagulant reference standard, the LPS.
The coagulation times are expressed in seconds.

Klebsiella pneumoniae = experiment: Anti-infection activity with respect to Klebsiella (mouse survival); format: in vivo; details: for anti-infectious activity: higher percentage of survivors than control group
Description: The testing procedure is described in the article CHEDID L. et col., Proc. Natl. Acad. Sci. USA 1977, 74: 2089.
It was shown that a dose of 1 to 2.10^4 Klebsiella pneumoniae, injected by the intramuscular route to mice, results in the progressive death of a considerable part, if not of the whole, of the animals in the week following inoculation. After eight days, the survival of the remaining animals is finally achieved.
The survival of groups of mice inoculated under the above-indicated conditions and treated by means of the products according to the invention, was followed.
For these tests, hybrid mice (C571B1/6×AKR)F1 raised at the INSTITUT PASTEUR were used, there mice being raised from strains coming from the C.N.R.S. breeding station at ORLEANS.
Infection by Klebsiella pneumoniae, capsular type 2, biotype d, strain was effected with a 16 hour culture in medium for pneumococci (No. 53515, INSTITUT PASTEUR) was effected. The infecting dose was 2.10^4 Klebsiella; it was administered by the intramuscular route.
The administration of the tested product is effected by the intravenous route in 0.2 ml of apyrogenic physiological solution, the controls receiving the solution alone. It is carried out 24 hours before the inoculation.

[4] = cited from earlier work
[5] = in vivo; cited from earlier work

| Compound | Antibody Titer Secondary Response [1] | Antibody Titer Primary Response [1] | Serum Antibodies [2] | Cutaneous test (diameter in mm) [2] [mm] | level of antibodies formed [1] | delayed hypersensitivity reaction [2] | level of antibodies formed [2] | coagulation time (total blood; incubation 0 h) [s] | coagulation time (total blood; incubation 2 h) [s] | coagulation time (total blood; incubation 3 h) [s] | coagulation time (total blood; incubation 4 h) [s] | coagulation time (total blood; incubation 5 h) [s] | effect on coagulation (total blood) | average rise in temperature ([3]; at 10 mg/kg) [°C] | anti-infectious activity (Klebsiella pneumoniae) | other results |
| --- | --- | --- | --- | --- | --- | --- | --- | --- | --- | --- | --- | --- | --- | --- | --- | --- |
| CC(=O)N[C@@H]1[C@@H](O[C@H](C)C(=O)N[C@@H](C)C(=O)N[C@H](CCC(=O)O)C(N)=O)[C@H](O)[C@@H](CO)O[C@H]1O [MDP, 2-(2-acetamido-2-deoxy-3-O-D-glucopyranosyl)-D-propionyl-L-alanyl-D-isoglutamine, reference compound] | 300 ± 100 | 50 | 5,000 μg/ml | 15 | – | – | – | – | – | – | – | – | – | – | – | – |
| COC(=O)[C@@H](CCC(N)=O)NC(=O)[C@H](C)NC(=O)[C@@H](C)O[C@H]1[C@H](O)[C@@H](CO)OC(O)[C@@H]1NC(C)=O (stereo partly drawn) [Mur--NAc--L-Ala--D-Glu(NH2)--OCH3, Methyl ester of N-acetyl-muramyl-L-alanyl-D-glutamine] | 500 ± 150 | 100 | 6,000 μg/ml | 17 | considerable increase in the level of antibodies formed | induces a delayed hypersensitivity reaction | very considerable increase in the level of antibodies formed | 125 | 118 | 109 | 110 | 104 | do not accelerate coagulation | – | – | average rise in temperature ([3]; at 5 mg/kg): 0.53 °C |
| CCCCCCCCCCOC(=O)C(CCC(N)=O)NC(=O)C(C)NC(=O)C(C)OC1C(O)C(CO)OC(O)C1NC(C)=O [decyl ester, n-decyl ester of N-acetyl-muramyl-L-alanyl-D-glutamine] | – | – | – | – | – | – | – | – | – | – | – | – | – | 0.23 | anti-infectious activity | – |
| CC(=O)N[C@H]1C(O)O[C@H](CO)[C@@H](O)[C@@H]1O[C@H](C)C(=O)N[C@@H](C)C(=O)N[C@H](CCC(N)=O)C(N)=O (stereo partly drawn) [diamide of N-acetyl-muramyl-L-alanyl-D-glutamic acid] | – | – | – | – | – | – | – | – | – | – | – | – | – | – | – | adjuvant activity compared with N-acetyl-muramyl-L-alanyl-D-isoglutamine ([4]; in vivo): less active; pyrogenicity [5]: very low level of pyrogenicity |
| COC(=O)CC[C@@H](NC(=O)[C@H](C)NC(=O)C(C)O[C@H]1[C@H](O)[C@@H](CO)O[C@H](O)[C@@H]1NC(C)=O)C(=O)OC (stereo partly drawn) [dimethyl ester of N-acetyl-muramyl-L-alanyl-D-glutamic acid] | – | – | – | – | – | – | – | – | – | – | – | – | – | – | – | adjuvant activity in oil compared with γ-methylester of N-acetyl-muramyl-L-alanyl-D-isoglutamine ([4]; in oil, ADAM et coll. 1976): lesser adjuvant activity in oil |
| n-butyl ester of N-acetyl-muramyl-L-alanyl-D-glutamine [Mur--NAc--L-Ala--D-Glu(NH2)--OC4 H9] | 600 ± 200 | 12 | 2,000 μg/ml | 8 | considerable increase in the level of antibodies formed | induces a delayed hypersensitivity reaction | very considerable increase in the level of antibodies formed | 129 | 120 | 122 | 114 | 108 | do not accelerate coagulation | 0.30 | anti-infectious activity | % Protection (Klebsiella pneumoniae; mice, 2.10^4 Klebsiella i.m., product i.v. 24 hours before inoculation): 63%; % Survival D3 (Klebsiella pneumoniae; mice, 2.10^4 Klebsiella i.m., product i.v. 24 hours before inoculation, day 3): 92%; % Survival D5 (Klebsiella pneumoniae; mice, 2.10^4 Klebsiella i.m., product i.v. 24 hours before inoculation, day 5): 75%; % Survival D10 (Klebsiella pneumoniae; mice, 2.10^4 Klebsiella i.m., product i.v. 24 hours before inoculation, day 10): 75% |
